Experimental data taken from article PMC2898634 (Chemical Communications (Cambridge, England), 2009).

Columns and labels:
[1] = molecular target: IP3R1 with R504 mutated to glutamine (Rattus norvegicus, UniProt P29994, R504Q); assay: Ca2+ release in cell line expressing only IP3R1 with R504 mutated to glutamine; assay type: cell-based
[2] = test system: IP3R; conditions: cited from earlier work

IP3R1 with R504 mutated to glutamine, sequence (P29994 whole entry R504Q): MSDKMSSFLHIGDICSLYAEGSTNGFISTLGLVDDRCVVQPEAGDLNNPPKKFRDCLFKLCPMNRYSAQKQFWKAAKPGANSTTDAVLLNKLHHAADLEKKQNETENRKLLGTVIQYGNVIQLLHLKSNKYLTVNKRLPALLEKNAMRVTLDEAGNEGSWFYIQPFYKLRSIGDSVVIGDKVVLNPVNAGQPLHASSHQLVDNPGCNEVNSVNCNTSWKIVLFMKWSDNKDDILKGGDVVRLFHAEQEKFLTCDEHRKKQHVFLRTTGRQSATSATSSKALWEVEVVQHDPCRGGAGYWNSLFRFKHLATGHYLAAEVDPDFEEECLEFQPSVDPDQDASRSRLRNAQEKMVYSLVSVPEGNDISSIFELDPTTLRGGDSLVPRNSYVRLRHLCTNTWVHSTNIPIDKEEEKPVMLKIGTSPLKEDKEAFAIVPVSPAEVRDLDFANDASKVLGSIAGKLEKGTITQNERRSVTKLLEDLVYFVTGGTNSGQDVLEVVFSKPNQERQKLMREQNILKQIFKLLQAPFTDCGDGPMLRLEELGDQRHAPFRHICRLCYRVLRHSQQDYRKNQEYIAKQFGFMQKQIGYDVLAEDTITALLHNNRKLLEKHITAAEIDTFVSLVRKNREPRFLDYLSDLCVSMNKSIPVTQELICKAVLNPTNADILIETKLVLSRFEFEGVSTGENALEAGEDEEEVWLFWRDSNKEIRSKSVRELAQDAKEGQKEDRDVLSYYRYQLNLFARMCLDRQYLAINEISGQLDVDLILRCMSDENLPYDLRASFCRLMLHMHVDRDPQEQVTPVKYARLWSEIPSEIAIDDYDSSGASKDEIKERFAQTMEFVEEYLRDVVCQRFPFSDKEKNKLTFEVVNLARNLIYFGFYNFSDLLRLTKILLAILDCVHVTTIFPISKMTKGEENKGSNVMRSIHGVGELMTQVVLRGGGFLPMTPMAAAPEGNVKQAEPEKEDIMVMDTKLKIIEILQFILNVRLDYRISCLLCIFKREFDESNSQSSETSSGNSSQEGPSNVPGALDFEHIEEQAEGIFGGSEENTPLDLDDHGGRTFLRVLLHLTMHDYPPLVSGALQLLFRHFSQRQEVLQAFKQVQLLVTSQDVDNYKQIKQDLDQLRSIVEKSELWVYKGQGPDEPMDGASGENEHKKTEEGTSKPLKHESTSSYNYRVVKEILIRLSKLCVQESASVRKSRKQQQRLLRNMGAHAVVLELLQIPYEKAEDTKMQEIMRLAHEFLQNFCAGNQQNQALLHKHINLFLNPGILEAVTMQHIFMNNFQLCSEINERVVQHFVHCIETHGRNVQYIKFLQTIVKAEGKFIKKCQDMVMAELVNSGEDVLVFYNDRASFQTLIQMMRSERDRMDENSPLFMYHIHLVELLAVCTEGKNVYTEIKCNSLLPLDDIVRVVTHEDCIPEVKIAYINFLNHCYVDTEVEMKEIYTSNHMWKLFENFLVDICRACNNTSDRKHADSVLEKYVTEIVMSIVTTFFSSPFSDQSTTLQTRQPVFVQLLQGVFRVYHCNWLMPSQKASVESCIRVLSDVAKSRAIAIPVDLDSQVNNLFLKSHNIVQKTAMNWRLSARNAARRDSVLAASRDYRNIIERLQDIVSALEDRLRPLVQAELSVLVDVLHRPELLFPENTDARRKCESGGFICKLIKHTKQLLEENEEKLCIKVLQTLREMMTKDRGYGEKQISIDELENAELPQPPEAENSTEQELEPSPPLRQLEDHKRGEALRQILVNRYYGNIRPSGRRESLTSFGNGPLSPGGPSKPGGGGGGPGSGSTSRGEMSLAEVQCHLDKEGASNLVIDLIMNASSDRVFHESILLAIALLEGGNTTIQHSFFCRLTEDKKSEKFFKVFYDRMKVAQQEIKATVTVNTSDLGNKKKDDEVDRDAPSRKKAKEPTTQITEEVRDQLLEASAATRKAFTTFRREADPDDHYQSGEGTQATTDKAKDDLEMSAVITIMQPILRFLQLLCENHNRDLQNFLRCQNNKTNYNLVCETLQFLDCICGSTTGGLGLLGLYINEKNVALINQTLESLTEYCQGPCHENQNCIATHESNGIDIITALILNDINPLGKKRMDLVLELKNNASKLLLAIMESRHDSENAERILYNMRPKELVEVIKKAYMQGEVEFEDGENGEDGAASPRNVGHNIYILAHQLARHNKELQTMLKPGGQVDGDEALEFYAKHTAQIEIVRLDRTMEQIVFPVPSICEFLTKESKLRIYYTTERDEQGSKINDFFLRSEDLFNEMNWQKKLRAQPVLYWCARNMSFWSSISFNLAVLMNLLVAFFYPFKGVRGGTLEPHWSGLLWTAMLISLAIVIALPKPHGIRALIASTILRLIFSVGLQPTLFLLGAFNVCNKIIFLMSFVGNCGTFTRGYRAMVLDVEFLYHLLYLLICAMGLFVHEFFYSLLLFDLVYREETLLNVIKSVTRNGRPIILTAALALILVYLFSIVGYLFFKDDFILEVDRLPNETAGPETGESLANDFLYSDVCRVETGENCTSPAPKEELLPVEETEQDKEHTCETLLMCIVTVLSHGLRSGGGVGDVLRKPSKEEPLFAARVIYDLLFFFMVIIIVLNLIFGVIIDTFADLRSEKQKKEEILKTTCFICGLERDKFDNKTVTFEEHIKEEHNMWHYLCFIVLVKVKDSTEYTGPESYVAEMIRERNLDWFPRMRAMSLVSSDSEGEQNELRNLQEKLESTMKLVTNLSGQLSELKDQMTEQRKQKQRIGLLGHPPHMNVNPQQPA

Row | Structure (SMILES) | potency relative to IP3 at the mutated receptor [1] | change of EC50 at mutant IP3R relative to IP3R1 ([1]; printed as EC50 reduced) [fold] | potency relative to IP3 [2] | activity at IP3R (result in words) [2]
1 | Nc1ncnc2c1ncn2[C@@H]1O[C@H](CO)[C@@H](O[C@H]2O[C@H](CO)[C@@H](OP(=O)(O)O)[C@H](OP(=O)(O)O)[C@H]2O)[C@H]1OP(=O)(O)O [AdA, adenophostin A] | only equipotent with IP3 | 434 | at least ten times more potent than IP3 | –
2 | O=P(O)(O)O[C@@H]1[C@@H](O)[C@H](OP(=O)(O)O)[C@H](O)[C@H](O)[C@H]1O [Ins(1,5)P2] | – | – | – | inactive
